Test results taken from US11548925B2, “CACNA1H-derived tumor antigen polypeptide and use thereof” (Genoimmune Therapeutics Co., Ltd., priority 2016, dated 2023).

Assays:
[1] = tested on: H2087-TLISSLMPI (SEQ ID NO: 2) subcutaneous tumor; assay: DC vaccine infected with recombinant lentivirus containing peptide gene in H2087-[…] tumor model; format: in vivo, NOD/SCID mice; conditions: DC infected with lentivirus carrying peptide gene, 2 injections
Excerpt: The following DNA sequences were synthesized: “[…]” (SEQ ID NO: 8), encoding the wild-type peptide […] (SEQ ID NO: 1); “[…]” (SEQ ID NO: 9), encoding the mutant peptide […] (SEQ ID NO: 2); “[…]” (SEQ ID NO: 10), encoding the SEQ ID NO: 2 […]'s variant peptide […] (SEQ ID NO: 3); “[…]” (SEQ ID NO: 11), encoding the SEQ ID NO: 2 […]'s variant peptide […] (SEQ ID NO: 4); “[…]” (SEQ ID NO: 12), encoding the SEQ ID NO: 2 […]'s variant peptide […] (SEQ ID NO: 5); “[…]” (SEQ ID NO: 13), encoding the SEQ ID NO: 2 […]'s variant peptide […] (SEQ ID NO: 6); and “[…]” (SEQ ID NO: 14), encoding the SEQ ID NO: 2_[…]'s variant peptide […] (SEQ ID NO: 7). The wild-type peptide […] (SEQ ID NO: 1), the mutant peptide […] (SEQ ID NO: 2) and the mutant peptide SEQ ID NO: 2 […]'s variant peptides were constructed into the lentiviral vector pHBLV-Puro, respectively, to name as pHBLV-Puro-[…] (SEQ ID NO: 1), pHBLV-Puro-[…] (SEQ ID NO: 2), pHBLV-Puro-[…] (SEQ ID NO: 3), pHBLV-Puro-[…] (SEQ ID NO: 4), pHBLV-Puro-[…] (SEQ ID NO: 5), pHBLV-Puro-[…] (SEQ ID NO: 6) and pHBLV-Puro-[…] (SEQ ID NO: 7), respectively. The seven lentiviral constructs were co-transfected into 293T cells with helper plasmids pSPAX2 and pMD2G for packaging, and lentiviruses of the wild-type peptide […] (SEQ ID NO: 1), the mutant peptide […] (SEQ ID NO: 2) and the mutant peptide's variant peptides were obtained.
600-900 ml of anticoagulated peripheral blood was collected from healthy volunteers for isolating peripheral blood mononuclear cells (PBMCs) via Ficoll. Cells were collected for use. 2×10^7 PBMCs per 0.5 ml was intraperitoneally injected into each of 300 NOD SCID mice without immune leakage to perform human immune reconstitution in NOD SCID mice. […]
The human non-small cell lung adenocarcinoma cell line H2087-[…] […] The long diameter a and the short diameter b of the tumor were measured with a vernier caliper every 2-3 days and the size of the tumor was calculated as a*b*b/2. The mice and tumors were weighed and recorded every day. […] The tumor volume and the survival rate of mice were recorded every 2 days. […]

[2] = tested on: H2087-TLISSLMPI (SEQ ID NO: 2) subcutaneous tumor; assay: Peptide-specific DC-CTL vaccine in H2087-[…] tumor model; format: in vivo, NOD/SCID mice; conditions: DC-CTL activated by peptide, tail vein, about 1×10^8 cells; vs wild-type peptide group
Protocol: The human non-small cell lung adenocarcinoma cell line H2087-[…] (SEQ ID NO: 2) as established in Example 7 was cultured in DMEM medium containing 10% fetal bovine serum, 100 U/mL penicillin and 100 U/mL streptomycin in an incubator at 37° C., 5% CO2. H2087-[…] (SEQ ID NO: 2) tumor cells were collected, centrifuged at 1500 rpm for 5 min, and washed 3 times with sterile physiological saline. The tumor cells were diluted appropriately. To 40 μl of cell suspension was added 10 μl of 0.4% […] for staining and microscopically counting cells. A tumor cell suspension at a concentration of 1*10^8 cells/ml was prepared. 100 μl of the tumor cell suspension was inoculated subcutaneously into a NOD/SCID mouse or an immune-reconstituted NOD/SCID mouse. […] The long diameter a and the short diameter b of the tumor were measured with a vernier caliper every 2-3 days and the size of the tumor was calculated as a*b*b/2. The mice and tumors were weighed and recorded every day. […] The tumor volume and the survival rate of mice were recorded every 2 days. […]
The collected PBLs were subjected to magnetic bead sorting to obtain CD8+ T cells, which were sensitized by co-incubation with DCs loaded with the wild-type peptide, DCs loaded with the mutant peptide […] […] The number of lymphocytes was counted and a cell proliferation index (PI) was calculated on days 0, 7, 14, and 21 of culture, respectively. […]

CD8+ T cells = assay: ELISPOTs detection of IFN-γ secretion by peptide-specific CD8+ T cells; format: cell-based, human; conditions: ratio of spot numbers; >2 immunogenic

With “TLISSLMPI [tumor antigen peptide from CACNA1H mutation, position 1428 arginine to methionine]” the Tumor-suppressing effect [1] was “significant tumor-suppressing effects”, the “Survival period of mice” value ([1]; vs wild-type peptide group) was “prolonged the survival period of mice” and the “Survival period of mice” value [2] was “prolonged the survival period of mice”. The Tumor-suppressing effect [2] was “significant tumor-suppressing effects” and the “Fold (tested/wild-type)” value (CD8+ T cells) was 9.27.
